# According to PMC7419507, “In vitro Cas9-assisted editing of modular polyketide synthase genes to produce desired natural product derivatives” (Nature Communications, 2020):
# “And” between values parts separate entries of the source, which are not always exact repeats. Equal entries are not always repeated.
# Columns and labels:
# [1] = Cytotoxicity assay (CellTiter-Glo, 72 h), Jurkat; type: cell-based; details: human, Jurkat cells (T lymphoma); for viability at 72 h, 9.53674e-05 uM: conc 9.53674e-5 uM; for viability at 72 h, 9.53674e-05 uM / viability at 72 h, 0.000190735 uM / viability at 72 h, 0.00038147 uM / viability at 72 h, 0.000762939 uM / viability at 72 h, 0.00152588 uM / viability at 72 h, 0.00305176 uM / viability at 72 h, 0.00610352 uM / viability at 72 h, 0.012207 uM / viability at 72 h, 0.0244141 uM / viability at 72 h, 0.0488281 uM / viability at 72 h, 0.0976562 uM / viability at 72 h, 0.195312 uM / viability at 72 h, 0.390625 uM / viability at 72 h, 0.78125 uM / viability at 72 h, 1.5625 uM / viability at 72 h, 3.125 uM / viability at 72 h, 6.25 uM / viability at 72 h, 12.5 uM / viability at 72 h, 25 uM / viability at 72 h, 50 uM: raw data (replicates); for viability at 72 h, 0.000190735 uM: conc 0.000190735 uM; for viability at 72 h, 0.00038147 uM: conc 0.00038147 uM; for viability at 72 h, 0.000762939 uM: conc 0.000762939 uM; for viability at 72 h, 0.00152588 uM: conc 0.00152588 uM; for viability at 72 h, 0.00305176 uM: conc 0.00305176 uM; for viability at 72 h, 0.00610352 uM: conc 0.00610352 uM; for viability at 72 h, 0.012207 uM: conc 0.012207 uM; for viability at 72 h, 0.0244141 uM: conc 0.0244141 uM; for viability at 72 h, 0.0488281 uM: conc 0.0488281 uM; for viability at 72 h, 0.0976562 uM: conc 0.0976562 uM; for viability at 72 h, 0.195312 uM: conc 0.195312 uM; for viability at 72 h, 0.390625 uM: conc 0.390625 uM; for viability at 72 h, 0.78125 uM: conc 0.78125 uM; for viability at 72 h, 1.5625 uM: conc 1.5625 uM; for viability at 72 h, 3.125 uM: conc 3.125 uM; for viability at 72 h, 6.25 uM: conc 6.25 uM; for viability at 72 h, 12.5 uM: conc 12.5 uM; for viability at 72 h, 25 uM: conc 25 uM; for viability at 72 h, 50 uM: conc 50 uM
# In short: (§1)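 Viability read by CellTiter-Glo luminescence after 72 h exposure to 2-fold compound dilutions (0.5% DMSO), added 4 h after plating 1000 cells/well.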
# T lymphoma Jurkat cells = test: Cytotoxicity assay (CellTiter-Glo, 72 h), Jurkat; type: cell-based; details: raw data (replicates)
# In short: as §1
compound,measurement,setting,value
"COC1CC2CCC(C)C(O)(O2)C(=O)C(=O)N2CCCCC2C(=O)OC(C(C)CC2CCC(O)C(OC)C2)CC(=O)C(C)C=C(C)C(O)C(OC)C(=O)C(C)CC(C)C=CCCC=C1C (stereo not drawn) [Compound 15, 19,20-dihidro-rapamycin]","viability at 72 h, 9.53674e-05 uM",[1],98.3%
same,"viability at 72 h, 0.000190735 uM",[1],102%
same,"viability at 72 h, 0.00038147 uM",[1],96.7%
same,"viability at 72 h, 0.000762939 uM",[1],101%
same,"viability at 72 h, 0.00152588 uM",[1],97.4%
same,"viability at 72 h, 0.00305176 uM",[1],94.6%
same,"viability at 72 h, 0.00610352 uM",[1],96.3%
same,"viability at 72 h, 0.012207 uM",[1],95.5%
same,"viability at 72 h, 0.0244141 uM",[1],98.5%
same,"viability at 72 h, 0.0488281 uM",[1],84.9%
same,"viability at 72 h, 0.0976562 uM",[1],83.5%
same,"viability at 72 h, 0.195312 uM",[1],65.5%
same,"viability at 72 h, 0.390625 uM",[1],61.7%
same,"viability at 72 h, 0.78125 uM",[1],43.6%
same,"viability at 72 h, 1.5625 uM",[1],40.7%
same,"viability at 72 h, 3.125 uM",[1],28.2%
same,"viability at 72 h, 6.25 uM",[1],26.6%
same,"viability at 72 h, 12.5 uM",[1],25.9%
same,"viability at 72 h, 25 uM",[1],1%
same,Jurkat viability (%),T lymphoma Jurkat cells; conc 9.53674e-5 uM,103.4% and 100.1%
same,Jurkat viability (%),T lymphoma Jurkat cells; conc 0.000190735 uM,103.2%
same,Jurkat viability (%),T lymphoma Jurkat cells; conc 0.00038147 uM,100.9% and 97.1%
same,Jurkat viability (%),T lymphoma Jurkat cells; conc 0.000762939 uM,96.9%
same,Jurkat viability (%),T lymphoma Jurkat cells; conc 0.00152588 uM,95.1% and 104.8%
same,Jurkat viability (%),T lymphoma Jurkat cells; conc 0.00305176 uM,96.4% and 103.3%
same,Jurkat viability (%),T lymphoma Jurkat cells; conc 0.00610352 uM,98.6% and 98.2%
same,Jurkat viability (%),T lymphoma Jurkat cells; conc 0.012207 uM,89.1% and 95.4%
same,Jurkat viability (%),T lymphoma Jurkat cells; conc 0.0244141 uM,88.3% and 94.3%
same,Jurkat viability (%),T lymphoma Jurkat cells; conc 0.0488281 uM,80.5% and 86.7%
same,Jurkat viability (%),T lymphoma Jurkat cells; conc 0.0976562 uM,80.2% and 77.6%
same,Jurkat viability (%),T lymphoma Jurkat cells; conc 0.195312 uM,65.6% and 66.3%
same,Jurkat viability (%),T lymphoma Jurkat cells; conc 0.390625 uM,56.5% and 56.0%
same,Jurkat viability (%),T lymphoma Jurkat cells; conc 0.78125 uM,41.6% and 42.0%
same,Jurkat viability (%),T lymphoma Jurkat cells; conc 1.5625 uM,32.3% and 35.9%
same,Jurkat viability (%),T lymphoma Jurkat cells; conc 3.125 uM,27.6% and 27.0%
same,Jurkat viability (%),T lymphoma Jurkat cells; conc 6.25 uM,24.6% and 25.7%
same,Jurkat viability (%),T lymphoma Jurkat cells; conc 12.5 uM,23.9% and 25.0%
same,Jurkat viability (%),T lymphoma Jurkat cells; conc 25 uM,1.5% and 1.1%
same,Jurkat viability (%),T lymphoma Jurkat cells; conc 50 uM,0.429% and 0.113% and 0.047%
"COC1CC2CCC(C)C(O)(O2)C(=O)C(=O)N2CCCCC2C(=O)OC(C(C)CC2CCC(O)C(OC)C2)CCC(C)C=C(C)C(O)C(OC)C(=O)C(C)CC(C)C=CC=CC=C1C (stereo not drawn) [Compound 16, 32-desketorapamycin]",viability at 72 h,"[1]; 72 h, read-out: Plateau level of cell viability in the dose-response curve",~25%
same,"viability at 72 h, 9.53674e-05 uM",[1],104%
same,"viability at 72 h, 0.000190735 uM",[1],86.9%
same,"viability at 72 h, 0.00038147 uM",[1],91.3%
same,"viability at 72 h, 0.000762939 uM",[1],67.7%
same,"viability at 72 h, 0.00152588 uM",[1],56.5%
same,"viability at 72 h, 0.00305176 uM",[1],40.9%
same,"viability at 72 h, 0.00610352 uM",[1],34.9%
same,"viability at 72 h, 0.012207 uM",[1],28.9%
same,"viability at 72 h, 0.0244141 uM",[1],30.6%
same,"viability at 72 h, 0.0488281 uM",[1],25.7%
same,"viability at 72 h, 0.0976562 uM",[1],24%
same,"viability at 72 h, 0.195312 uM",[1],24.3%
same,"viability at 72 h, 0.390625 uM",[1],25.2%
same,"viability at 72 h, 0.78125 uM",[1],22.1%
same,"viability at 72 h, 1.5625 uM",[1],21.9%
same,"viability at 72 h, 3.125 uM",[1],20.3%
same,"viability at 72 h, 6.25 uM",[1],20.4%
same,"viability at 72 h, 12.5 uM",[1],11.9%
same,"viability at 72 h, 25 uM",[1],2%
same,"viability at 72 h, 50 uM",[1],0.248%
same,Jurkat viability (%),T lymphoma Jurkat cells; conc 9.53674e-5 uM,101.4% and 98.2%
same,Jurkat viability (%),T lymphoma Jurkat cells; conc 0.000190735 uM,92.4% and 84.6%
same,Jurkat viability (%),T lymphoma Jurkat cells; conc 0.00038147 uM,90.4% and 75.5%
same,Jurkat viability (%),T lymphoma Jurkat cells; conc 0.000762939 uM,69.2% and 63.8%
same,Jurkat viability (%),T lymphoma Jurkat cells; conc 0.00152588 uM,59.9% and 53.6%
same,Jurkat viability (%),T lymphoma Jurkat cells; conc 0.00305176 uM,41.7% and 44.0%
same,Jurkat viability (%),T lymphoma Jurkat cells; conc 0.00610352 uM,34.2% and 31.7%
same,Jurkat viability (%),T lymphoma Jurkat cells; conc 0.012207 uM,27.6% and 27.9%
same,Jurkat viability (%),T lymphoma Jurkat cells; conc 0.0244141 uM,27.8% and 26.9%
same,Jurkat viability (%),T lymphoma Jurkat cells; conc 0.0488281 uM,23.6% and 25.9%
same,Jurkat viability (%),T lymphoma Jurkat cells; conc 0.0976562 uM,24.4%
same,Jurkat viability (%),T lymphoma Jurkat cells; conc 0.195312 uM,26.3% and 22.8%
same,Jurkat viability (%),T lymphoma Jurkat cells; conc 0.390625 uM,23.3%
same,Jurkat viability (%),T lymphoma Jurkat cells; conc 0.78125 uM,22.7% and 23.1%
same,Jurkat viability (%),T lymphoma Jurkat cells; conc 1.5625 uM,22.0%
same,Jurkat viability (%),T lymphoma Jurkat cells; conc 3.125 uM,23.1% and 21.1%
same,Jurkat viability (%),T lymphoma Jurkat cells; conc 6.25 uM,20.5% and 21.0%
same,Jurkat viability (%),T lymphoma Jurkat cells; conc 12.5 uM,14.7% and 14.4%
same,Jurkat viability (%),T lymphoma Jurkat cells; conc 25 uM,2.4% and 2.3%
same,Jurkat viability (%),T lymphoma Jurkat cells; conc 50 uM,0.267% and 0.233%
"CO[C@@H]1C[C@H](C[C@@H](C)[C@@H]2CC(=O)[C@H](C)/C=C(\C)[C@@H](O)[C@@H](OC)C(=O)[C@H](C)C[C@H](C)/C=C/C=C/C=C(\C)[C@H](O)C[C@@H]3CC[C@@H](C)[C@@](O)(O3)C(=O)C(=O)N3CCCC[C@H]3C(=O)O2)CC[C@H]1O [Compound 17, (16R)-16-O-demethyl rapamycin]","viability at 72 h, 9.53674e-05 uM",[1],98.1%
same,"viability at 72 h, 0.000190735 uM",[1],101%
same,"viability at 72 h, 0.00038147 uM",[1],107%
same,"viability at 72 h, 0.000762939 uM",[1],100%
same,"viability at 72 h, 0.00152588 uM",[1],106%
same,"viability at 72 h, 0.00305176 uM",[1],95.3%
same,"viability at 72 h, 0.00610352 uM",[1],96.3%
same,"viability at 72 h, 0.012207 uM",[1],74.7%
same,"viability at 72 h, 0.0244141 uM",[1],79%
same,"viability at 72 h, 0.0488281 uM",[1],40%
same,"viability at 72 h, 0.0976562 uM",[1],39.6%
same,"viability at 72 h, 0.195312 uM",[1],36.3%
same,"viability at 72 h, 0.390625 uM",[1],32.4%
same,"viability at 72 h, 0.78125 uM",[1],32.4%
same,"viability at 72 h, 1.5625 uM",[1],29.2%
same,"viability at 72 h, 3.125 uM",[1],28.8%
same,"viability at 72 h, 6.25 uM",[1],28.5%
same,"viability at 72 h, 12.5 uM",[1],30.5%
same,"viability at 72 h, 25 uM",[1],28.8%
same,"viability at 72 h, 50 uM",[1],21.6%
same,Jurkat viability (%),T lymphoma Jurkat cells; conc 9.53674e-5 uM,104.2% and 104.9%
same,Jurkat viability (%),T lymphoma Jurkat cells; conc 0.000190735 uM,98.3% and 107.4%
same,Jurkat viability (%),T lymphoma Jurkat cells; conc 0.00038147 uM,107.2% and 107.3%
same,Jurkat viability (%),T lymphoma Jurkat cells; conc 0.000762939 uM,99.4%
same,Jurkat viability (%),T lymphoma Jurkat cells; conc 0.00152588 uM,99.3% and 104.0%
same,Jurkat viability (%),T lymphoma Jurkat cells; conc 0.00305176 uM,97.0% and 104.1%
same,Jurkat viability (%),T lymphoma Jurkat cells; conc 0.00610352 uM,89.4% and 97.3%
same,Jurkat viability (%),T lymphoma Jurkat cells; conc 0.012207 uM,81.9% and 78.2%
same,Jurkat viability (%),T lymphoma Jurkat cells; conc 0.0244141 uM,72.3% and 67.5%
same,Jurkat viability (%),T lymphoma Jurkat cells; conc 0.0488281 uM,50.1% and 57.1%
same,Jurkat viability (%),T lymphoma Jurkat cells; conc 0.0976562 uM,39.4% and 41.6%
same,Jurkat viability (%),T lymphoma Jurkat cells; conc 0.195312 uM,33.7% and 37.9%
same,Jurkat viability (%),T lymphoma Jurkat cells; conc 0.390625 uM,35.4% and 34.2%
same,Jurkat viability (%),T lymphoma Jurkat cells; conc 0.78125 uM,31.2% and 32.6%
same,Jurkat viability (%),T lymphoma Jurkat cells; conc 1.5625 uM,28.2% and 33.2%
same,Jurkat viability (%),T lymphoma Jurkat cells; conc 3.125 uM,27.7% and 29.4%
same,Jurkat viability (%),T lymphoma Jurkat cells; conc 6.25 uM,29.5%
same,Jurkat viability (%),T lymphoma Jurkat cells; conc 12.5 uM,26.8%
same,Jurkat viability (%),T lymphoma Jurkat cells; conc 25 uM,30.6% and 29.0%
same,Jurkat viability (%),T lymphoma Jurkat cells; conc 50 uM,21.7% and 20.3%
